Numbered stars: 1 amine (or outer) side, 2 acyl side, 3 side chain; on linkers, the order of the positions; unused ones are H or OH. Bridge positions count the residues as written; N and C are the ends. Square brackets hold non-standard residues; d marks the D form. Peptide text beside a SMILES is read from it. * marks the point of attachment. Trp(βS-Me,7-OMe) = COc1cccc2c([C@H](C)[C@H](N)C(=O)O)c[nH]c12; X17 = Cc1[nH]c2ccccc2c1[C@H](C)[C@H](N[*:1])C(=O)[*:2]; Phe(4-NHCONH2) = NC(=O)Nc1ccc(C[C@H](N)C(=O)O)cc1; Trp(7-Cl) = N[C@@H](Cc1c[nH]c2c(Cl)cccc12)C(=O)O; X11 = O=C(O)C[C@@H]1C[C@H](C(=O)[*:2])N([*:1])C1; Ala(pyrimidin-5-yl) = N[C@@H](Cc1cncnc1)C(=O)O; Phe(4-CONH2) = NC(=O)c1ccc(C[C@H](N)C(=O)O)cc1; Phe(4-COOH) = N[C@@H](Cc1ccc(C(=O)O)cc1)C(=O)O; Trp(7-aza) = N[C@@H](Cc1c[nH]c2ncccc12)C(=O)O; Phe(4-CH2NH2) = NCc1ccc(C[C@H](N)C(=O)O)cc1; Pip(5R-OH) = O=C(O)[C@@H]1CC[C@@H](O)CN1; X1 = O=C([C@@H]1CC[C@H](N[*:1])C1)[*:2]; NHCH2CH2SCH2CO = O=C(CSCCN[*:1])[*:2]; Pip(4-aza) = O=C(O)[C@@H]1CNCCN1; 4Pal = N[C@@H](Cc1ccncc1)C(=O)O; NMeE = CN[C@@H](CCC(=O)O)C(=O)O; dHyp = O=C(O)[C@H]1C[C@H](O)CN1; NMehSer = CN[C@@H](CCO)C(=O)O; hLys = NCCCCC[C@H](N)C(=O)O; NMeS = CN[C@@H](CO)C(=O)O; αMeS = C[C@](N)(CO)C(=O)O; Carboxymethyl = O=C(O)C*; Nle = CCCC[C@H](N)C(=O)O; Sar = CNCC(=O)O
Columns and labels:
[1] = molecular target: T1, human TNFR1 extracellular domain (ECD) protein (Homo sapiens, UniProt P19438); test: SPR binding affinity to captured human TNFR1 ECD
T1 construct: HRV 3C protease cleavage site (C); 6His (C, cleaved yes); made in house; host or cells: Sf21 insect cells (baculovirus), secreted
T1 sequence (P19438 30-211): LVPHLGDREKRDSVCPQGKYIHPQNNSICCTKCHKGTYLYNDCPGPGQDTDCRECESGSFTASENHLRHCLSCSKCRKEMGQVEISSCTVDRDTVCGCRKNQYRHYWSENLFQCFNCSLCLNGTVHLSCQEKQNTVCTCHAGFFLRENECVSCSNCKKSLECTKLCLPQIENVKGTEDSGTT
Procedure, shortened: (§1)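 Peptides are tested against captured biotin-tagged human TNFR1 ECD, with parallel TNFR2 ECD binding to check selectivity. Buffer: 10 mM HEPES pH 7.4, 150 mM NaCl, 3 mM EDTA, 0.05% P20, 2% DMSO.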

[2] = molecular target: T2, TNFα-induced NF-κB signal transduction pathway (TNFR1 signaling) in THP-1 cells (Homo sapiens, UniProt P19438); test: THP-1 Lucia NF-κB reporter cell assay, inhibition of TNFα-induced NF-κB signaling; assay type: cell-based; details: THP-1 NF-κB Lucia reporter cells, 10 ng/mL TNFα, 16-18 h, secreted luciferase; read-out: THP-1 IC50
T2 sequence (P19438 30-455): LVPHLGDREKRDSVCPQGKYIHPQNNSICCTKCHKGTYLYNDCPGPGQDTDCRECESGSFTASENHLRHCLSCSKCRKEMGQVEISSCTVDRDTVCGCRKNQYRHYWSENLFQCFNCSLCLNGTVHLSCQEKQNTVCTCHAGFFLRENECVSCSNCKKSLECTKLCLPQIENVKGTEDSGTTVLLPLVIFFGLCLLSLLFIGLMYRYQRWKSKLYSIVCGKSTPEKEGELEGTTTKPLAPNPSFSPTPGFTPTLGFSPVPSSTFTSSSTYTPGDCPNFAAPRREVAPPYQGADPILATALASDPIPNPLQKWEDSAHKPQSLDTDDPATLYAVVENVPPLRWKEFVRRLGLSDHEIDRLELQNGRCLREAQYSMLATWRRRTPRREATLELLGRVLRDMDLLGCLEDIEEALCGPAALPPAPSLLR
Procedure, shortened: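 THP-1 Lucia NF-κB cells, 20k/well, no selection antibiotics; peptide pre-inc 1 h 37 °C; + recombinant human TNFα 10 ng/mL final; o.n.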

[3] = molecular target: T3, human TNFR2 ECD protein (Homo sapiens, UniProt P20333); test: SPR off-target binding (selectivity) to human TNFR2 ECD
T3 construct: HRV 3C protease cleavage site (C); 6His (C, cleaved yes); made in house; host or cells: Sf21 insect cells (baculovirus), secreted
T3 sequence (P20333 23-257): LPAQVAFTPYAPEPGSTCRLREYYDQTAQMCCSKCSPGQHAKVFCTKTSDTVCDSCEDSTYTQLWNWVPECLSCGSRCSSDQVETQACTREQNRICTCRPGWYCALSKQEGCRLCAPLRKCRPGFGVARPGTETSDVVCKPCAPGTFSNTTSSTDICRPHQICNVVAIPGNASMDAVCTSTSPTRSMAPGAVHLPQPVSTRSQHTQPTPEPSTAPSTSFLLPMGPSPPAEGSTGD
Procedure, shortened: as §1

| Structure (SMILES) | Kd [1] | IC50 [2] | Kd [3] |
| --- | --- | --- | --- |
| CCCC[C@@H]1NC(=O)[C@@H]2CC[C@@H](C2)NC(=O)[C@H]([C@@H](C)c2c[nH]c3c(OC)cccc23)NC(=O)CN(C)C(=O)[C@H](Cc2ccc(O)cc2)NC(=O)[C@H](Cc2ccc(C(N)=O)cc2)NC(=O)[C@](C)(CO)NC(=O)[C@H](Cc2c[nH]c3c(Cl)cccc23)NC(=O)[C@H](Cc2ccc(C(=O)O)cc2)NC(=O)[C@H](CC(N)=O)NC(=O)[C@H]2C[C@H](OCC(=O)O)CN2C(=O)[C@H](Cc2c[nH]c3ccccc23)NC(=O)[C@@H]2CNCCN2C(=O)[C@H](Cc2ccncc2)NC1=O [SEQ ID NO. 95] (cyclo([4Pal][Pip(4-aza)]W[dHyp](Carboxymethyl)N[Phe(4-COOH)][Trp(7-Cl)][αMeS][Phe(4-CONH2)]Y[Sar][Trp(βS-Me,7-OMe)][X1][Nle])) | 0.2 nM | 0.7 nM | > 1000 nM |
| CCCC[C@@H]1NC(=O)CSC[C@@H](C(N)=O)NC(=O)[C@H]([C@@H](C)c2c(C)[nH]c3ccccc23)NC(=O)CN(C)C(=O)[C@H](Cc2ccc(O)cc2)NC(=O)[C@H](Cc2ccc(C(N)=O)cc2)NC(=O)[C@](C)(CO)NC(=O)[C@H](Cc2c[nH]c3c(Cl)cccc23)NC(=O)[C@H](Cc2ccncc2)NC(=O)[C@H](CC(N)=O)NC(=O)[C@H](CCC(=O)O)N(C)C(=O)[C@H](Cc2c[nH]c3ccccc23)NC(=O)[C@@H]2CC[C@@H](O)CN2C(=O)[C@H](Cc2ccncc2)NC1=O [SEQ ID NO. 97] ({CH2CO}-[Nle][4Pal][Pip(5R-OH)]W[NMeE]N[4Pal][Trp(7-Cl)][αMeS][Phe(4-CONH2)]Y[Sar][X17]C-NH2; thioether N-14) | 0.08 nM | 0.9 nM | > 1000 nM |
| CCCC[C@@H]1NC(=O)CSC[C@@H](C(N)=O)NC(=O)[C@H]([C@@H](C)c2c[nH]c3c(OC)cccc23)NC(=O)CN(C)C(=O)[C@H](Cc2ccc(O)cc2)NC(=O)[C@H](Cc2ccc(C(=O)O)cc2)NC(=O)[C@](C)(CO)NC(=O)[C@H](Cc2c[nH]c3c(Cl)cccc23)NC(=O)[C@H](Cc2ccncc2)NC(=O)[C@H](CC(N)=O)NC(=O)[C@H](CCC(=O)O)N(C)C(=O)[C@H](Cc2c[nH]c3ncccc23)NC(=O)[C@H](CCOC)N(C)C(=O)[C@H](Cc2ccncc2)NC1=O [SEQ ID NO. 99] ({CH2CO}-[Nle][4Pal][NMehSer](Me)[Trp(7-aza)][NMeE]N[4Pal][Trp(7-Cl)][αMeS][Phe(4-COOH)]Y[Sar][Trp(βS-Me,7-OMe)]C-NH2; thioether N-14) | 0.15 nM | 3.7 nM | > 1000 nM |
| CCCC[C@@H]1NC(=O)[C@@H]2CC[C@@H](C2)NC(=O)[C@H]([C@@H](C)c2c[nH]c3c(OC)cccc23)NC(=O)CN(C)C(=O)[C@H](Cc2ccc(O)cc2)NC(=O)[C@H](Cc2ccc(C(N)=O)cc2)NC(=O)[C@](C)(CO)NC(=O)[C@H](Cc2c[nH]c3c(Cl)cccc23)NC(=O)[C@H](Cc2cncnc2)NC(=O)[C@H](CC(N)=O)NC(=O)[C@H](CCC(=O)O)N(C)C(=O)[C@H](Cc2c[nH]c3ccccc23)NC(=O)[C@@H]2CC[C@@H](O)CN2C(=O)[C@H](Cc2ccncc2)NC1=O [SEQ ID NO. 102] (cyclo([4Pal][Pip(5R-OH)]W[NMeE]N[Ala(pyrimidin-5-yl)][Trp(7-Cl)][αMeS][Phe(4-CONH2)]Y[Sar][Trp(βS-Me,7-OMe)][X1][Nle])) | 0.2 nM | 0.5 nM | > 1000 nM |
| CCCC[C@@H]1NC(=O)CSC[C@@H](C(N)=O)NC(=O)[C@H]([C@@H](C)c2c[nH]c3c(OC)cccc23)NC(=O)CN(C)C(=O)[C@H](Cc2ccc(O)cc2)NC(=O)[C@H](Cc2ccc(C(=O)O)cc2)NC(=O)[C@](C)(CO)NC(=O)[C@H](Cc2c[nH]c3c(Cl)cccc23)NC(=O)[C@H](Cc2ccc(C(=O)O)cc2)NC(=O)[C@H](CC(N)=O)NC(=O)[C@H](CCC(=O)O)N(C)C(=O)[C@H](Cc2c[nH]c3ccccc23)NC(=O)[C@H](CO)N(C)C(=O)[C@H](Cc2ccc(C(N)=O)cc2)NC1=O [SEQ ID NO. 123] ({CH2CO}-[Nle][Phe(4-CONH2)][NMeS]W[NMeE]N[Phe(4-COOH)][Trp(7-Cl)][αMeS][Phe(4-COOH)]Y[Sar][Trp(βS-Me,7-OMe)]C-NH2; thioether N-14) | 0.32 nM | 4.1 nM | > 1000 nM |
| CCCC[C@@H]1NC(=O)[C@@H]2CC[C@@H](C2)NC(=O)[C@H]([C@@H](C)c2c[nH]c3c(OC)cccc23)NC(=O)CN(C)C(=O)[C@H](Cc2ccc(O)cc2)NC(=O)[C@H](Cc2ccc(NC(N)=O)cc2)NC(=O)[C@](C)(CO)NC(=O)[C@H](Cc2c[nH]c3c(Cl)cccc23)NC(=O)[C@H](Cc2ccncc2)NC(=O)[C@H](CC(N)=O)NC(=O)[C@H](CCC(=O)O)N(C)C(=O)[C@H](Cc2c[nH]c3ccccc23)NC(=O)[C@@H]2CNCCN2C(=O)[C@H](Cc2ccncc2)NC1=O [SEQ ID NO. 127] (cyclo([4Pal][Trp(7-Cl)][αMeS][Phe(4-NHCONH2)]Y[Sar][Trp(βS-Me,7-OMe)][X1][Nle][4Pal][Pip(4-aza)]W[NMeE]N)) | 0.18 nM | 0.8 nM | > 1000 nM |
| COc1cccc2c([C@H](C)[C@@H]3NC(=O)CN(C)C(=O)[C@H](Cc4ccc(O)cc4)NC(=O)[C@H](Cc4ccc(C(=O)O)cc4)NC(=O)[C@](C)(CO)NC(=O)[C@H](Cc4c[nH]c5c(Cl)cccc45)NC(=O)[C@H](Cc4ccncc4)NC(=O)[C@H](CC(N)=O)NC(=O)[C@H](CCC(=O)O)N(C)C(=O)[C@H](Cc4c[nH]c5ccccc45)NC(=O)[C@@H]4CC[C@@H](O)CN4C(=O)[C@H](Cc4ccncc4)NC(=O)[C@H](CCCCCN)NC(=O)[C@@H]4CC[C@@H](C4)NC3=O)c[nH]c12 [SEQ ID NO. 131] (cyclo([4Pal][Trp(7-Cl)][αMeS][Phe(4-COOH)]Y[Sar][Trp(βS-Me,7-OMe)][X1][hLys][4Pal][Pip(5R-OH)]W[NMeE]N)) | 0.06 nM | 0.7 nM | > 1000 nM |
| CCCC[C@@H]1NC(=O)[C@@H]2CC[C@@H](C2)NC(=O)[C@H]([C@@H](C)c2c[nH]c3c(OC)cccc23)NC(=O)CN(C)C(=O)[C@H](Cc2ccc(C(=O)O)cc2)NC(=O)[C@H](Cc2ccc(C(N)=O)cc2)NC(=O)[C@](C)(CO)NC(=O)[C@H](Cc2c[nH]c3c(Cl)cccc23)NC(=O)[C@H](Cc2ccc(C(=O)O)cc2)NC(=O)[C@H](CC(N)=O)NC(=O)[C@H]2C[C@@H](CC(=O)O)CN2C(=O)[C@H](Cc2c[nH]c3ccccc23)NC(=O)[C@@H]2CC[C@@H](O)CN2C(=O)[C@H](Cc2ccncc2)NC1=O [SEQ ID NO. 132] (cyclo([4Pal][Pip(5R-OH)]W[X11]N[Phe(4-COOH)][Trp(7-Cl)][αMeS][Phe(4-CONH2)][Phe(4-COOH)][Sar][Trp(βS-Me,7-OMe)][X1][Nle])) | 0.08 nM | 0.7 nM | > 1000 nM |
| CCCC[C@@H]1NC(=O)CSCCNC(=O)[C@H]([C@@H](C)c2c[nH]c3c(OC)cccc23)NC(=O)CN(C)C(=O)[C@H](Cc2ccc(O)cc2)NC(=O)[C@H](Cc2ccc(C(=O)O)cc2)NC(=O)[C@](C)(CO)NC(=O)[C@H](Cc2c[nH]c3c(Cl)cccc23)NC(=O)[C@H](Cc2ccncc2)NC(=O)[C@H](CC(N)=O)NC(=O)[C@H](CCC(=O)O)N(C)C(=O)[C@H](Cc2c[nH]c3ncccc23)NC(=O)[C@H](CO)NC(=O)[C@H](Cc2ccc(CN)cc2)NC1=O [SEQ ID NO. 258] (cyclo([4Pal][Trp(7-Cl)][αMeS][Phe(4-COOH)]Y[Sar][Trp(βS-Me,7-OMe)][NHCH2CH2SCH2CO][Nle][Phe(4-CH2NH2)]S[Trp(7-aza)][NMeE]N)) | 0.2 nM | 11.5 nM | > 1000 nM |

Source: patent US20240287138A1, “CYCLIC PEPTIDES FOR INHIBITING TNF RECEPTOR 1 ACTIVITY” (Merck Sharp & Dohme LLC, priority 2023, published 2024)
